Measurements published in EP0636146B1, “TACHYKININ ANTAGONIST TRICYCLIC COMPOUNDS, PREPARATION OF SAME AND PHARMACEUTICAL COMPOSITIONS CONTAINING SUCH COMPOUNDS” (A. MENARINI INDUSTRIE FARMACEUTICHE RIUNITE S.R.L., priority 1992, dated 1997).

What was measured:
[1] = tested on: neuroquinine A receptor (receptor NK-2); assay: inhibition of NKA-induced contraction of isolated rabbit pulmonary artery; type: cell-based; conditions: NKA 3 nM
Description: The capacity of the products described in the present invention to interact with the neuroquinine A receptor as agonists or antagonists was assessed using a preparation characterized by the fact that the biological response produced by tachyquinines and correlated peptides was exclusively determined by the neuroquinine A receptor (receptor NK-2). The said preparation consisted of isolated rabbit pulmonary artery affected by a dose-dependent contraction brought about by tachyquinines (Rovero et al., Neuropeptides, 13, 263-270, 1989). The determination of the peptide activity in the test preparation was based on the use of an NKA concentration (3 nM) causing a response equal to 45% of max. response. The peptides considered herein were added to the preparation in growing concentrations. Their activity was assessed as inhibition of response to NKA.

[2] = tested on: P substance receptor (receptor NK-1); assay: inhibition of SP methyl ester-induced contraction of isolated guinea pig ileum; type: cell-based; set-up: dose or concentration left out as unconfirmed; conditions: SP methyl ester 10 nm
Description: The capacity of the products described herein to interact with the P substance receptor (receptor NK-1) was assessed through an in vitro test, where the biological response produced by tachyquinines and correlated peptides was exclusively determined by the P substance receptor. The test preparation consisted of isolated guinea pig ileum affected by a dose-dependent contraction brought about by tachyquinines (Lee et al., Schmied. Arch. Pharmacol., 318, 281-287, 1982). The determination of the activity of the products as per the present invention in the test preparation was based on the use of an SP methyl ester concentration (10 nm) causing a response equal to 45% of max. response (S. Dion et al., Life Sci., 41, 2269-2278, 1987). The products considered herein were added to the preparation in growing concentrations. Their activity was assessed as inhibition of response to SP with satisfactory results.

cyclo(MDWFL) [compound 1]
inhibition of response to neuroquinine A [1]: 100% | inhibition of response to SP methyl ester [2]: 100%
